Measured values reported in US6623741B1, “Methods and compositions for inhibition of membrane fusion-associated events including RSV transmission” (Trimeris, Inc., priority 2000, dated 2003).
“And” between values parts separate entries of the source, which are not always exact repeats. Equal values may be shown once.

Assays:
[1] = target: T1, DP107-like domain of the RSV F1-protein (MF5.1 fusion protein) (Human respiratory syncytial virus A, UniProt P03420); assay: biochemical; assay type: binding; conditions: binding affinity for the DP107-like domain of RSV F1 protein
T1 construct: made in house
T1 sequence (P03420 142-302): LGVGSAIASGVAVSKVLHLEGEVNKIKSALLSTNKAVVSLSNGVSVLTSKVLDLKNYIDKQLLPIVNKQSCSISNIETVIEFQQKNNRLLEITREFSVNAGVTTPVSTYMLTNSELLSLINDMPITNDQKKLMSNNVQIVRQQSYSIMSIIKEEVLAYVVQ
Protocol: After incubation and washing, unbound Fab-d is removed from the plates and bound Fab-d is quantitated. A no-inhibitor control should also be conducted.
Such an assay takes advantage of accepted radioligand and receptor binding principles. (See, for example, Yamamura, H. I. et al., 1985, “Neurotransmitter Receptor Binding”, 2nd ed., Raven Press, NY.) As above, M41Δ78 is immobilized onto a solid support such as a microtiter well. […] Specific binding to M41Δ78 is defined as the difference of the binding of the labeled DP178 preparation in the microtiter wells (totals) and the binding in identical wells containing, in addition, excess unlabeled DP178 (nonspecifics).
Specifically, the DNA sequence corresponding amino acid residues 142-302 of the RSV F1 protein was amplified by PCR and cloned into the Xmn I site of the expression vector pMal-p2 (New England Biolab) to give MF5.1. These amino acid residues correspond to the extracellular domain of the RSV F1 protein including its DP107 region but excluding the DP178 region.
Cell fusion assays were performed with each of the peptides as described in Section 17 above.

[2] = Circular dichroism spectroscopy (helicity, thermal stability); assay type: physicochemical; conditions: 10 and 50 μM
Protocol: Circular Dichroism Spectroscopy:
Circular Dichroism (CD) spectra were obtained using an AVIV Associates 62DS spectrometer equipped with a thermoelectric temperature controller. Spectra were obtained in 0.1, 0.5 and 1.0 cm quartz cells at 1° C. with 0.5 nm steps from 200 to 260 nm, 1.5 nm bandwidth and an averaging time of 4 sec/step. After the cell/buffer blank was subtracted, spectra were smoothed using a third-order least-squares polynomial fit with a conservative (5-10 point) window size to give random residuals. Mixing experiments were performed by comparing the spectrum of the two peptides mixed together in a 0.1 cm path length cell at the desired concentrations (referred to herein as the “experimental” spectrum) to the sum of the individual spectra of the peptides, each solution in a 0.1 cm path length cell (referred to herein as the “model spectrum” for no peptide interaction or “model for no interaction”).
Raw ellipticity values were converted to mean residue ellipticity using standard methods (Cantor & Schimmel, 1980, Biophysical Chemistry Part II: Techniques for the Study of Biological Structure and Function, W.H. Freeman and Co., New York). Conversions for the mixing experiment spectra were performed using a peptide length corresponding to the average of the two peptides. Thermal stability measurements were performed in 2° C. steps, with 1 minute equilibration times. Spectra were smoothed, converted to mean residue ellipticity, and the corresponding value at 222 nm noted from each spectrum. Percent helicity values were calculated using single value decomposition with a basis set of 33 protein spectra (Johnson & Curtis, 1990, Proteins: Structure, Function and Genetics 7:205-214).

HR1 domain of RSV-F1 [3] = target: T2, HR1 domain of RSV-F1 (Human respiratory syncytial virus A, UniProt P03420); assay type: binding
T2 construct: made in house
T2 sequence (P03420 142-302): as above
Protocol: Proteinase-K Protection Experiments:
(§1) Mixtures were treated with 5 μg/ml proteinase-K (Sigma, St. Louis, Mo.) or an equivalent volume of buffer, vortexed and then incubated for one hour at 37° C. Phenyl methyl sulfonyl fluoride (PMSF, Boehringer Mannheim, Indianapolis, Ind.) was added to achieve a 2 mM final concentration to stop proteolytic digestion. 20 μl of each sample was removed and added to 10 μl of a sample buffer (New England Biolabs, Boston, Mass.) containing 6 w/v% Sodium Dodecyl Sulfate (DDS), DTT, 187.5 mM TRIS, 30% glycerol and bromophenol blue. The mixtures were heated for five minutes at 90° C. 15 μl of the samples were run on a 10-20% Tricine polyacrylamide gel (Novex, San Diego, Calif.), stained with Coomassie brilliant blue and destained with a 10% methanol-10% acetic acid mixture (Fisher, Norcross, Ga.).

HR1 domain of RSV-F1 [4] = assay type: binding, respiratory syncytial virus; conditions: 5 μg/ml proteinase-K, one hour at 37° C.
Protocol: Proteinase-K Protection Experiments:
as §1

## CC[C@H](C)[C@H](NC(=O)[C@H](Cc1ccccc1)NC(=O)[C@H](C)NC(=O)[C@H](CC(C)C)NC(=O)[C@H](CO)NC(=O)[C@H](CCC(N)=O)NC(=O)[C@H](CC(N)=O)NC(=O)[C@@H](NC(=O)[C@H](CCCCN)NC(=O)[C@H](CCC(=O)O)NC(=O)[C@H](CC(N)=O)NC(=O)[C@@H](NC(=O)[C@H](CCC(N)=O)NC(=O)[C@H](CO)NC(=O)[C@@H](NC(=O)[C@H](CO)NC(=O)[C@H](C)NC(=O)[C@H](CC(=O)O)NC(=O)[C@H](Cc1ccccc1)NC(=O)[C@H](CCC(=O)O)NC(=O)[C@H](CC(=O)O)NC(=O)[C@H](CO)NC(=O)[C@@H]1CCCN1C(=O)[C@H](Cc1ccccc1)NC(=O)[C@@H](NC(C)=O)C(C)C)[C@@H](C)CC)C(C)C)[C@@H](C)CC)C(=O)N[C@@H](CCCNC(=N)N)C(=O)N[C@@H](CCCCN)C(=O)N[C@@H](CO)C(=O)N[C@@H](CC(=O)O)C(=O)N[C@@H](CCC(=O)O)C(=O)N[C@@H](CC(C)C)C(=O)N[C@@H](CC(C)C)C(=O)N[C@@H](Cc1c[nH]cn1)C(=O)N[C@@H](CC(N)=O)C(=O)N[C@H](C(N)=O)C(C)C [Peptide T112]
[1]
  Kd: 2 nM and 1 nM
[2]
  thermal stability (CD melting curves, in words): little thermal stability
[2]; PBS solution
  helicity: less than 10%
HR1 domain of RSV-F1 [3]
  binding to the HR1 domain of RSV-F1 and protection from proteolytic digestion: binds to the HR1 domain of RSV-F1 and thereby protects the domain from proteolytic digestion
HR1 domain of RSV-F1 [4]
  proteinase-K digestion of the peptide alone: digest the peptide entiretly
